From publication PMC8161398, “Targeting Lactate Dehydrogenase A with Catechin Resensitizes SNU620/5FU Gastric Cancer Cells to 5-Fluorouracil” (International Journal of Molecular Sciences, 2021)

Experiments:
[1] = molecular target: T1, lactate dehydrogenase A (LDHA) (Homo sapiens, UniProt P00338); experiment: ITC; also purified LDHA activity assay by NADH fluorescence (IC50 =[…]); format: binding
T1 construct: purified recombinant LDHA

[2] = molecular target: T1, lactate dehydrogenase A (LDHA); experiment: LDHA activity assay (NADH fluorescence), dose-dependent; format: biochemical
[3] = molecular target: T2, lactate dehydrogenase B (LDHB) (Homo sapiens, UniProt P07195); experiment: LDHB activity assay (NADH fluorescence), dose-dependent; format: biochemical
T2 construct: purified recombinant LDHB
T2 sequence (P07195 2-334): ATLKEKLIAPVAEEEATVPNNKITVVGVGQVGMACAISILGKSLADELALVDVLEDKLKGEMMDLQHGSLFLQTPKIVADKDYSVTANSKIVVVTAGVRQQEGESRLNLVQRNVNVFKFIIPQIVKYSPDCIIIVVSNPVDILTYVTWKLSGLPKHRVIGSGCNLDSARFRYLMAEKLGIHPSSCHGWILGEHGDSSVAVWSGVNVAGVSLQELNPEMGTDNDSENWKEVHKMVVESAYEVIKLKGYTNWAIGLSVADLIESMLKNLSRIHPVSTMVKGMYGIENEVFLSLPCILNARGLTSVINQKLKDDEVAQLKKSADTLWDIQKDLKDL

Row | SMILES | Kd [1] [µM] | LDHA activity assay (NADH fluorescence), dose-dependent [2] | LDHB activity assay (NADH fluorescence), dose-dependent [3]
1 | Oc1cc(O)c2c(c1)OC(c1ccc(O)c(O)c1)C(O)C2 (stereo not drawn) [CA, Catechin] | 197 |  | 
2 | O=C(O[C@@H]1Cc2c(O)cc(O)cc2O[C@@H]1c1cc(O)c(O)c(O)c1)c1cc(O)c(O)c(O)c1 [EGCG, epigallocatechin-3-gallate] |  | LDHA and LDHB activities were measured with EGCG, which is known to inhibit LDHA activity | exert inhibitory effects on both LDHA and LDHB activities
